Assay [1] deals with Dirofilaria immitis microfilariae. The experiment in a line: Dirofilaria immitis, Microfilariae (DiMF) In Vitro Assay. Particulars: Dirofilaria immitis.
For assay [2], the target named is T1, bovine vesicular acetylcholine transporter (VAChT) (Bos taurus, UniProt E1BK36).
T1 sequence (E1BK36 1-524): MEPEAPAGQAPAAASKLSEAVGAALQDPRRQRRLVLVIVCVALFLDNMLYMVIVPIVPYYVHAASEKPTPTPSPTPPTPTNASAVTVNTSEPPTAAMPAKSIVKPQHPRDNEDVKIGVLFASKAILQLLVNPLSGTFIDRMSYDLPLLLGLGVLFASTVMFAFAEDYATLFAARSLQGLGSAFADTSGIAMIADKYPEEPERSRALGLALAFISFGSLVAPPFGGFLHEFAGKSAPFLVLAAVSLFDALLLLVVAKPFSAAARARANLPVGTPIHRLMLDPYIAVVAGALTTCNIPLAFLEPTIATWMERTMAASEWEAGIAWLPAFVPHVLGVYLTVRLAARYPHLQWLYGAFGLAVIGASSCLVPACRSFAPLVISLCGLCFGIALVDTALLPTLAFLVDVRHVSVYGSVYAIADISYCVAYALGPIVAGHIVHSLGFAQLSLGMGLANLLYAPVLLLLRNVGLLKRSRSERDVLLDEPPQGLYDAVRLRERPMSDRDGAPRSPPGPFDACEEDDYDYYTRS
The experiment in a line: Radioligand Binding Assay. To be noted: Bovine binding Ki, CHO-K1 membranes with recombinant bovine VAChT, [3H]Compound X6 0.3 nM.

A further assay has as its system Haemonchus contortus L3. In words: Haemonchus contortus, Larvae Stage 3 (HcL3) In Vitro Assay. To be noted: Haemonchus contortus.
[3] abbreviates: 72 h, read-out: Di MF, MEC, decrease in microfilariae motility by visual assessment, curve starting at 100 μM.
[4] abbreviates: 96 h, read-out: HcL3 MEC, Minimal Effective Concentration whereby worm motility is inhibited by approximately 70%, 37° C., tested 0.001-100 μM.
Setting [5] is: 96 hours, 37° C., read-out: HcL3 MEC.

Where two headings read alike, the source gives them in different places.

In the case of `O=C(NCc1ccnc(Cl)c1)N1CC2(CCN(C/C=C/c3ccc(F)cc3)CC2)c2c(Cl)cc(Cl)cc21` [Example 161, (E)-4,6-dichloro-N-((2-chloropyridin-4-yl)methyl)-1′-(3-(4-fluorophenyl)allyl)spiro[indoline-3,4′-piperidine]-1-carboxamide], the minimal effective concentration (in assay [1] (setting [3]); in the assay on Haemonchus contortus L3 (setting [4])) was 10 µM each time. Also, the inhibition constant Ki (commonly a measure of affinity in units of concentration, obtained from inhibition or displacement) in assay [2] was found to be 259 nM.
In the case of `CS(=O)(=O)c1ccc2c(c1)N(C(=O)NCc1ccnc(Cl)c1)CC21CCN(C/C=C/c2ccc(Cl)cc2)CC1` [Example 162, (E)-1′-(3-(4-chlorophenyl)allyl)-N-((2-chloropyridin-4-yl)methyl)-6-(methylsulfonyl)spiro[indoline-3,4′-piperidine]-1-carboxamide], the minimal effective concentration (in assay [1] (setting [3]); in the assay with Haemonchus contortus L3 (setting [4])) was 10 µM throughout. In assay [2], the Ki was 23.4 nM.
With `O=C(NCc1ccnc(Cl)c1)N1CC2(CCN(C/C=C/c3ccc(F)cc3)CC2)c2cc(OC(F)(F)F)ccc21` [Example 163, (E)-N-((2-chloropyridin-4-yl)methyl)-1′-(3-(4-fluorophenyl)allyl)-5-(trifluoromethoxy)spiro[indoline-3,4′-piperidine]-1-carboxamide], the minimal effective concentration in assay [1] (72 hours, read-out: Di MF) was 2.5 µM; in the assay with Haemonchus contortus L3 (setting [5]) it was 10.1 µM. The inhibitory constant (Ki) in assay [2] was 554 nM.
`O=C(NCc1ccnc(Cl)c1)N1CC2(CCN(C/C=C/c3ccc(C(F)(F)F)cc3)CC2)c2c1ccc(F)c2Cl` [Example 164, (E)-4-chloro-N-((2-chloropyridin-4-yl)methyl)-5-fluoro-1′-(3-(4-(trifluoromethyl)phenyl)allyl)spiro[indoline-3,4′-piperidine]-1-carboxamide]: the minimal effective concentration in assay [1] (setting [3]) is 5.3 µM; with Haemonchus contortus L3 (setting [4]), 12.4 µM. In assay [2], the Ki stood at 311 nM.
The corresponding values for `N#Cc1cccc2c1C1(CCN(C/C=C/c3ccc(Cl)cc3)CC1)CN2C(=O)NCc1ccnc(Cl)c1` [Example 165, (E)-1′-(3-(4-chlorophenyl)allyl)-N-((2-chloropyridin-4-yl)methyl)-4-cyanospiro[indoline-3,4′-piperidine]-1-carboxamide] are 8.3 µM, 16.7 µM and 38.4 nM.
The corresponding values for `N#Cc1c(F)ccc2c1C1(CCN(C/C=C/c3ccc(Cl)cc3)CC1)CN2C(=O)NCc1ccnc(Cl)c1` [Example 166, (E)-1′-(3-(4-chlorophenyl)allyl)-N-((2-chloropyridin-4-yl)methyl)-4-cyano-5-fluorospiro[indoline-3,4′-piperidine]-1-carboxamide] are 1.5 µM, 23.5 µM and 43.5 nM.
As to `COc1ccc2c(c1)C1(CCN(C/C=C/c3ccc(Cl)c(Cl)c3)CC1)CN2C(=O)NCc1ccnc(Cl)c1` [Example 167, (E)-N-((2-chloropyridin-4-yl)methyl)-1′-(3-(3,4-dichlorophenyl)allyl)-5-methoxyspiro[indoline-3,4′-piperidine]-1-carboxamide], the minimal effective concentration came out at 33 µM in assay [1] (72 hours, read-out: Di MF) and 6.9 µM in the assay with Haemonchus contortus L3 (setting [5]). Further, in assay [2], the Ki is 184 nM.
Turning to `COc1ccc(/C=C/CN2CCC3(CC2)CN(C(=O)NCc2ccnc(Cl)c2)c2ccc(C(F)(F)F)cc23)cc1` [Example 168, (E)-N-((2-chloropyridin-4-yl)methyl)-1′-(3-(4-methoxyphenyl)allyl)-5-(trifluoromethyl)spiro[indoline-3,4′-piperidine]-1-carboxamide], the minimal effective concentration in assay [1] (72 hours, read-out: Di MF) came to 3.3 µM; in the assay on Haemonchus contortus L3 (setting [5]), 33 µM. Moreover, in assay [2], the Ki turned out to be 266 nM.
As for `O=C(NCc1ccnc(Cl)c1)N1CC2(CCN(C/C=C/c3ccc(Cl)cc3)CC2)c2cc(S(F)(F)(F)(F)F)ccc21` [Example 169, (E)-1′-(3-(4-chlorophenyl)allyl)-N-((2-chloropyridin-4-yl)methyl)-5-(pentafluorosulfide)spiro[indoline-3,4′-piperidine]-1-carboxamide], the values for the minimal effective concentration (in assay [1] (setting [3]); with Haemonchus contortus L3 (setting [4])) were 3.3 µM and 47.8 µM, respectively. Besides, in assay [2], the Ki turned out to be 467 nM.
The corresponding values for `O=C(NCc1ccnc(Cl)c1)N1CC2(CCN(C/C=C/c3ccc(C(F)(F)F)cc3)CC2)c2cc(C(F)(F)F)ccc21` [Example 170, (E)-N-((2-chloropyridin-4-yl)methyl)-5-(trifluoromethyl)-1′-(3-(4-(trifluoromethyl)phenyl)allyl)spiro[indoline-3,4′-piperidine]-1-carboxamide] are 5.7 µM, 57.4 µM and 716 nM.
As to `O=C(NCc1ccnc(Cl)c1)N1CC2(CCN(C/C=C/c3ccc(Cl)c(Cl)c3)CC2)c2cc(Cl)cc(Cl)c21` [Example 171, (E)-5,7-dichloro-N-((2-chloropyridin-4-yl)methyl)-1′-(3-(3,4-dichlorophenyl)allyl)spiro[indoline-3,4′-piperidine]-1-carboxamide], the minimal effective concentration in assay [1] (72 hours, read-out: Di MF) was determined as 7.6 µM; with Haemonchus contortus L3 (setting [5]), 69.1 µM. The Ki in assay [2] is 20.9 nM.
For `O=C(NCc1ccnc(Cl)c1)N1CC2(CCN(C/C=C/c3ccc(OC(F)(F)F)cc3)CC2)c2cc(C(F)(F)F)ccc21` [Example 172, (E)-N-((2-chloropyridin-4-yl)methyl)-1′-(3-(4-(trifluoromethoxy)phenyl)allyl)-5-(trifluoromethyl)spiro[indoline-3,4′-piperidine]-1-carboxamide], the minimal effective concentration in assay [1] (setting [3]) worked out at 5.7 µM; in the assay with Haemonchus contortus L3 (setting [4]) it was 100 µM. Further, in assay [2], the Ki stood at 921 nM.
As for `O=C(NCc1ccnc(Cl)c1)N1CC2(CCN(C/C=C/c3ccc(Cl)cc3)CC2)c2c1ccc(F)c2C(F)(F)F` [Example 173, (E)-1′-(3-(4-chlorophenyl)allyl)-N-((2-chloropyridin-4-yl)methyl)-5-fluoro-4-(trifluoromethyl)spiro[indoline-3,4′-piperidine]-1-carboxamide], the values for the minimal effective concentration (in assay [1] (setting [3]); with Haemonchus contortus L3 (setting [4])) were 5.7 µM and 100 µM, respectively. Further, in assay [2], the Ki turned out to be 465 nM.
With `O=C(NCc1ccnc(Cl)c1)N1CC2(CCN(C/C=C/c3ccc(F)cc3)CC2)c2c(OC(F)(F)F)cccc21` [Example 174, (E)-N-((2-chloropyridin-4-yl)methyl)-1′-(3-(4-fluorophenyl)allyl)-4-(trifluoromethoxy)spiro[indoline-3,4′-piperidine]-1-carboxamide], the minimal effective concentration in assay [1] (setting [3]) was found to be 4.4 µM; in the assay on Haemonchus contortus L3 (setting [4]), 100 µM. Besides, the Ki in assay [2] amounted to 1500 nM.
The corresponding values for `O=C(NCc1ccnc(C(F)(F)F)c1)N1CC2(CCN(C/C=C/c3ccc(F)cc3)CC2)c2cc(OC(F)(F)F)ccc21` [Example 175, (E)-1′-(3-(4-fluorophenyl)allyl)-5-(trifluoromethoxy)-N-((2-(trifluoromethyl)pyridin-4-yl)methyl)spiro[indoline-3,4′-piperidine]-1-carboxamide] are 3.3 µM, 24.5 µM and 452 nM.

For the origin of these results see patent US20160296499A1, “Spiroindoline Antiparasitic Derivatives” (ZOETIS SERVICES LLC, priority 2013, published 2016).
